Measured values: ChEMBL document CHEMBL6134895, “Strategic Design and Optimization of Umifenovir Analogues: Balancing Antiviral Efficacy and hERG Toxicity against SARS-CoV-2” (J Med Chem, 2025)
The source made the active and inactive calls. The rule behind the calls is not given here.

Key:
[1] = test system: SARS-CoV-2; assay: (§1) Antiviral activity against SARS CoV-2 Wuhan infected in African green monkey Vero E6 cells assessed as inhibition of viral replication pretreated for 15 mins followed by compound removal and induction of viral infection for 1 hr and subsequent removal of inoculum and further addition of media containing compound measured after 24 hrs by cell-based ELISA; format: functional, organism-based; conditions: Severe acute respiratory syndrome coronavirus 2, Wuhan, Vero C1008
[2] = test system: Vero C1008; assay: Cytotoxicity against African green monkey Vero E6 cells assessed as cell viability at 5 uM incubated for 48 hrs by MTT assay; format: toxicity, cell-based; conditions: chlorocebus sabaeus, vero c1008, 48 h, 5 µM
[3] = test system: SARS-CoV-2; assay: as §1, with “virus inactivation at 1 uM” for “inhibition of viral replication”, “48” for “24”, “RT-qPCR analysis relative to control” for “cell-based ELISA”; format: functional, Severe acute respiratory syndrome coronavirus 2; conditions: time 48.25 hrs
[4] = test system: SARS-CoV-2; assay: as §1, with “virus inactivation at 5 uM” for “inhibition of viral replication”, “48” for “24”, “RT-qPCR analysis relative to control” for “cell-based ELISA”; format: functional, Severe acute respiratory syndrome coronavirus 2; conditions: time 48.25 hrs
[5] = target: Voltage-gated inwardly rectifying potassium channel KCNH2 (Homo sapiens, UniProt Q12809); assay: Inhibition of hERG extracted from membrane (unknown origin) incubated for 4 hrs by fluorescence polarization assay; format: toxicity, cell membranes
[6] = Lipophilicity, LogD of compound in sodium phosphate buffer/n-octanol incubated for 3 hrs by LC-UV analysis; format: physicochemical
[7] = Stability in human plasma assessed as half life at 2 uM measured up to 120 mins by LC-MS/MS analysis; format: ADME, cell-free
[8] = Stability in mouse plasma assessed as half life at 2 uM measured up to 120 mins by LC-MS/MS analysis; format: ADME, cell-free
[9] = Stability in human plasma assessed as compound remaining at 2 uM measured after 2 hrs by LC-MS/MS analysis; format: ADME, cell-free; conditions: read-out: Stability
[10] = Stability in mouse plasma assessed as compound remaining at 2 uM measured after 2 hrs by LC-MS/MS analysis; format: ADME, cell-free; conditions: read-out: Stability
[11] = Microsomal stability in human liver microsomes assessed as half life at 100 uM preincubated for 15 mins followed by NADPH addition measured up to 60 mins by LC-MS/MS analysis; format: ADME, Microsome; conditions: time < 75 min
[12] = Microsomal stability in mouse liver microsomes assessed as half life at 100 uM preincubated for 15 mins followed by NADPH addition measured up to 60 mins by LC-MS/MS analysis; format: ADME, Microsome; conditions: time < 75 min
[13] = Microsomal stability in human liver microsomes assessed as compound remaining at 100 uM preincubated for 15 mins followed by NADPH addition measured after 60 mins by LC-MS/MS analysis; format: ADME, Microsome; conditions: time 75 min, read-out: Stability
[14] = Microsomal stability in mouse liver microsomes assessed as compound remaining at 100 uM preincubated for 15 mins followed by NADPH addition measured after 60 mins by LC-MS/MS analysis; format: ADME, Microsome; conditions: time 75 min, read-out: Stability
[15] = Microsomal stability in human liver microsomes assessed as intrinsic clearance measured per mg protein at 100 uM preincubated for 15 mins followed by NADPH addition measured up to 60 mins by LC-MS/MS analysis; format: ADME, Microsome; conditions: time < 75 min, read-out: CLH
[16] = Microsomal stability in mouse liver microsomes assessed as intrinsic clearance measured per mg protein at 100 uM preincubated for 15 mins followed by NADPH addition measured up to 60 mins by LC-MS/MS analysis; format: ADME, Microsome; conditions: time < 75 min, read-out: CLH
[17] = Stability in human plasma assessed as compound remaining at 2 uM measured after 60 mins by LC-MS/MS analysis; format: ADME, cell-free; conditions: read-out: Stability
[18] = Stability in mouse plasma assessed as compound remaining at 2 uM measured after 60 mins by LC-MS/MS analysis; format: ADME, cell-free; conditions: read-out: Stability
[19] = test system: SARS-CoV-2; assay: Potency index, ratio of Arbidol IC50 to test compound IC50 for antiviral activity against SARS CoV-2 Wuhan infected in African green monkey Vero E6 cells assessed as inhibition of viral replication pretreated for 15 mins followed by compound removal and induction of viral infection for 1 hr and subsequent removal of inoculum and further addition of media containing compound measured after 24 hrs …; format: functional, Severe acute respiratory syndrome coronavirus 2; conditions: time 24.25 hrs
[20] = test system: SARS-CoV-2; assay: Antiviral activity against SARS CoV-2 Wuhan infected in African green monkey Vero E6 cells assessed as decrease in spike protein expression at 0.5 uM incubated for 48 hrs by immunofluorescence based analysis; format: functional, organism-based; conditions: Severe acute respiratory syndrome coronavirus 2
[21] = test system: SARS-CoV-2; assay: Antiviral activity against SARS CoV-2 Wuhan infected in African green monkey Vero E6 cells assessed as decrease in viral particles at 0.5 uM incubated for 48 hrs by confocal microscopy; format: functional, organism-based; conditions: Severe acute respiratory syndrome coronavirus 2
[22] = test system: SARS-CoV-2; assay: Antiviral activity against SARS CoV-2 Wuhan infected in African green monkey Vero E6 cells assessed as decrease in green fluorescence at 0.5 uM incubated for 48 hrs by confocal microscopy; format: functional, organism-based; conditions: Severe acute respiratory syndrome coronavirus 2
[23] = Half life in female C57BL/6 mouse at 2 mg/kg, iv; format: ADME, organism-based; conditions: in vivo
[24] = Clearance in female C57BL/6 mouse at 2 mg/kg, iv; format: ADME, organism-based; conditions: in vivo
[25] = Volume of distribution at steady state in female C57BL/6 mouse at 2 mg/kg, iv; format: ADME, organism-based; conditions: in vivo, read-out: Vdss
[26] = Cmax in female C57BL/6 mouse at 20 mg/kg, po; format: ADME, organism-based; conditions: in vivo
[27] = Tmax in female C57BL/6 mouse at 20 mg/kg, po; format: ADME, organism-based; conditions: in vivo
[28] = AUC (0 to infinity) in female C57BL/6 mouse at 20 mg/kg, po; format: ADME, organism-based; conditions: in vivo
[29] = Oral bioavailability in female C57BL/6 mouse at 20 mg/kg; format: ADME, organism-based; conditions: in vivo
[30] = AUC (0 to infinity) in female C57BL/6 mouse at 2 mg/kg, iv; format: ADME, organism-based; conditions: in vivo
[31] = test system: SARS-CoV-2; assay: Antiviral activity against SARS CoV-2 Wuhan infected in African green monkey Vero E6 cells assessed as decrease in spike protein expression at 0.7 uM incubated for 48 hrs by immunofluorescence based analysis; format: functional, organism-based; conditions: Severe acute respiratory syndrome coronavirus 2
[32] = test system: SARS-CoV-2; assay: Antiviral activity against SARS CoV-2 Wuhan infected in African green monkey Vero E6 cells assessed as decrease in viral particles at 0.7 uM incubated for 48 hrs by confocal microscopy; format: functional, organism-based; conditions: Severe acute respiratory syndrome coronavirus 2
[33] = test system: SARS-CoV-2; assay: Antiviral activity against SARS CoV-2 Wuhan infected in African green monkey Vero E6 cells assessed as decrease in green fluorescence at 0.7 uM incubated for 48 hrs by confocal microscopy; format: functional, organism-based; conditions: Severe acute respiratory syndrome coronavirus 2

Voltage-gated inwardly rectifying potassium channel KCNH2, sequence (Q12809 whole entry): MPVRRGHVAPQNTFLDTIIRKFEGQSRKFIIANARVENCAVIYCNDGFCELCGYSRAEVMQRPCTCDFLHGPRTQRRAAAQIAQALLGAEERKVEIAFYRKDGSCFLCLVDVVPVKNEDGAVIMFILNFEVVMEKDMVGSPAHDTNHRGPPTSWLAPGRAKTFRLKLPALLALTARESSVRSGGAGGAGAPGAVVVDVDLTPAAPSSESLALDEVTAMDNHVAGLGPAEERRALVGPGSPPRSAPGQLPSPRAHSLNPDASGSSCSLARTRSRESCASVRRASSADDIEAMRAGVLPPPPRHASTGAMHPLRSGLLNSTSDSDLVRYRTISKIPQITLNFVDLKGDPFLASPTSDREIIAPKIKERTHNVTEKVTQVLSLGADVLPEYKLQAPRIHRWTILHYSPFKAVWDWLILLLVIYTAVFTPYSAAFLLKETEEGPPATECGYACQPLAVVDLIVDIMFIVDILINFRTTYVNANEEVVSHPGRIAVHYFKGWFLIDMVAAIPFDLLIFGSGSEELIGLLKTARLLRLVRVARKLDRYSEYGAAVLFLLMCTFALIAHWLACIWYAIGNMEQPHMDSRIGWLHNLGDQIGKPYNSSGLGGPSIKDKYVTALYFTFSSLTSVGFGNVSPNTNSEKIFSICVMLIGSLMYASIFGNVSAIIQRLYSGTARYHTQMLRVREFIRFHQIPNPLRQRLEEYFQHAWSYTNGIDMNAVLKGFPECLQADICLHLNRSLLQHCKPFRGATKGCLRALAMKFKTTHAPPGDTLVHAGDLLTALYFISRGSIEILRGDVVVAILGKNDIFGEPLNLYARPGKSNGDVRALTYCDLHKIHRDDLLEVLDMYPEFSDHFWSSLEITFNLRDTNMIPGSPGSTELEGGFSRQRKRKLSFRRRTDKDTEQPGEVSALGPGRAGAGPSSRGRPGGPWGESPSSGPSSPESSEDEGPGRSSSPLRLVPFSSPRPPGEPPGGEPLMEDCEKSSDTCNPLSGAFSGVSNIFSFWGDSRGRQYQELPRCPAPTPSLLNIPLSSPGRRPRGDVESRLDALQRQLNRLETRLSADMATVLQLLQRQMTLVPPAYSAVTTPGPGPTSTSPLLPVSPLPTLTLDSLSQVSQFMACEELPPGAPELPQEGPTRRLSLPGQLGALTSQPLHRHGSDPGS

Row | SMILES | IC50 [1] [nM] | Activity [2] | Activity [4] [%] | IC50 [5] [nM] | logD at 3 h [6] | half-life at 2 µM [7] [min] | half-life at 2 µM [8] [min] | remaining at 2 h, 2 µM [9] [%] | remaining at 2 h, 2 µM [10] [%] | half-life at 100 µM [11] [min] | half-life at 100 µM [12] [min] | remaining at 1 h, 100 µM [13] [%] | remaining at 1 h, 100 µM [14] [%] | microsomal CLint at 100 µM [15] [µL/min/mg] | microsomal CLint at 100 µM [16] [µL/min/mg] | remaining at 1 h, 2 µM [17] [%] | remaining at 1 h, 2 µM [18] [%] | Ratio IC50 [19] | further results
1 | CCOC(=O)c1c(CSc2ccc(C)cc2C)n(Cc2ccc(C)cc2)c2cc(Br)c(O)c(CN(C)C)c12 | 1500 | Non-toxic | <99.9 | 6030 | 3.98 | > 120 | > 120 | 115 | 88.4 | 2.71 | 5.08 | 0.31 | 0.314 | 512 | 273 |  |  |  | Activity [3]: <99.9%
2 | Cc1ccc(Cn2c(CSc3c(C)cc(C)cc3C)c(C(=O)N3CCC(N4CCOCC4)CC3)c3cc(O)c(Br)cc32)cc1 | 670 | Non-toxic |  | 15900 | 2.45 | 41.1 | 53.5 |  |  | 19.8 | 26.9 | 11.4 | 14.7 | 35 | 31.3 | 27.1 | 44 | ~13 | Activity [20]: Active; Activity [21]: Active; Activity Was Comparable To Remdesivir; Activity [22]: Active; half-life [23]: 86.4 min; clearance [24]: 92.4 mL/min/kg; Vd [25]: 13.4 L/kg; Cmax [26]: 148 ng/mL; Tmax [27]: 120 min; AUC(0-inf) [28]: 1190 ng·h/mL; bioavailability [29]: 33.9%; AUC(0-inf) [30]: 352 ng·h/mL
3 | Cc1ccc(Cn2c(CSc3c(C)cc(C)cc3C)c(C(=O)Nc3cnn(C)c3)c3cc(O)c(Br)cc32)cc1 | 700 | Non-toxic |  | > 30000 | 1.93 | 42 | 52.2 |  |  | 24.5 | 22.1 | 16.5 | 18 | 28.3 | 25.8 | 28.6 | 42.5 | ~13 | Activity [31]: Active; Activity [32]: Active; Activity Was Comparable To Remdesivir; Activity [33]: Active
4 | CCOC(=O)c1c(CSc2c(C)cc(C)cc2C)n(Cc2ccc(C)cc2)c2cc(Br)c(O)cc12 | 1500 | Non-toxic | >99 | > 30000 | 3.03 | > 120 | > 120 |  |  | 17.3 | 7.17 | 8.56 | 1.23 | 193 | 80.2 | 87.8 | 111 |  | 
5 | Cc1ccc(Cn2c(CSc3c(C)cc(C)cc3C)c(C(=O)NC3CCN(C(C)C)CC3)c3cc(O)c(Br)cc32)cc1 | 750 | Non-toxic |  | 10600 | 3.95 | > 240 | > 240 |  |  | 89.8 | 120 | 59.4 | 80.1 | 15.5 | 9.64 | 57.6 | 74.8 | ~13 | 
6 | CCOC(=O)c1c(CSc2ccc(C)cc2C)n(Cc2cccc3ccccc23)c2cc(Br)c(O)cc12 | 240 | Non-toxic | <90 | > 30000 | 3.76 | > 240 | 180 | 69.1 | 70.3 | > 120 | > 120 | 96.7 | 75.5 | 20.2 | > 14.4 |  |  |  | 
